Conditions: 343.15 K, Liquid, Vibrating tube method

CCCCCC(=O)OCC(COC(=O)CCCCC)(COC(=O)CCCCC)COC(=O)CCCCC [pentaerythritol tetrahexanoate]
Conditions | mass density [kg/m3]
1134.6 kPa | 957.9
1280.5 kPa | 958.2
1295.1 kPa | 958.1
1307.6 kPa | 958.1
1320.1 kPa | 958.1
1332.9 kPa | 958.2
1348.2 kPa | 958.2
1414.9 kPa | 958.2
1428.2 kPa | 958.2
1444 kPa | 958.2
1457.4 kPa | 958.2
1470.4 kPa | 958.2
1483.5 kPa | 958.1
1513.7 kPa | 958.3
1557.9 kPa | 958.3
1571.7 kPa | 958.3
1588.7 kPa | 958.4
1603.1 kPa | 958.4
1617.5 kPa | 958.4
1697.7 kPa | 958.3
1713.1 kPa | 958.5
1728.4 kPa | 958.5
1747.5 kPa | 958.3
1763.5 kPa | 958.4
1779.3 kPa | 958.3
1795.9 kPa | 958.4
1815 kPa | 958.5
1831.3 kPa | 958.5
1848.3 kPa | 958.5
1865 kPa | 958.4
1884.9 kPa | 958.5
1902.5 kPa | 958.6
1920.5 kPa | 958.6
1937.8 kPa | 958.6
1958.6 kPa | 958.5
1976.1 kPa | 958.6
1993.6 kPa | 958.7
2012 kPa | 958.6
2033.4 kPa | 958.6
2051.6 kPa | 958.6
2070.2 kPa | 958.9
2092.2 kPa | 958.6
2363.6 kPa | 958.8
2384.2 kPa | 958.9
2409 kPa | 959
2429.7 kPa | 959
2451.3 kPa | 959
2477.2 kPa | 959.1
2710.1 kPa | 959.1
2733 kPa | 959.1
2756.2 kPa | 959.1
2778.8 kPa | 959.3
2805.7 kPa | 959.1
2828.2 kPa | 959.3
2850.2 kPa | 959.4
2877.4 kPa | 959.2
2900.2 kPa | 959.2
2971.9 kPa | 959.4
2994.1 kPa | 959.4
3021 kPa | 959.5
3043.4 kPa | 959.5
3066.1 kPa | 959.4
3093.1 kPa | 959.5
3115.3 kPa | 959.5
3138.2 kPa | 959.4
3165.6 kPa | 959.5
3188.6 kPa | 959.5
3212 kPa | 959.6
3235.3 kPa | 959.5
3263.5 kPa | 959.6
3286.6 kPa | 959.7
3314.6 kPa | 959.6
3338.4 kPa | 959.7
3362.1 kPa | 959.6
3386.4 kPa | 959.6
3410.3 kPa | 959.6
3439.1 kPa | 959.8
3463 kPa | 959.8
3486.9 kPa | 959.8
3514.8 kPa | 959.7
3538.6 kPa | 959.8
3563 kPa | 959.8
3592.3 kPa | 959.9
3616.2 kPa | 960
3640.6 kPa | 959.9
3665.4 kPa | 959.8
3695 kPa | 959.9
3719.3 kPa | 959.8
3743.2 kPa | 960
3768 kPa | 960
3796.7 kPa | 960
3821.2 kPa | 960
4008.1 kPa | 960.2
4035.6 kPa | 960.1
4062.6 kPa | 960.2
4089.1 kPa | 960.2
4120.6 kPa | 960.3
4147.6 kPa | 960.4
4174.5 kPa | 960.3
4201.5 kPa | 960.3
4234.2 kPa | 960.2
4261.2 kPa | 960.4
4288.4 kPa | 960.4
4316.6 kPa | 960.4
4350.4 kPa | 960.4
4378.3 kPa | 960.5
4414.7 kPa | 960.4
4437.5 kPa | 960.5
4465.6 kPa | 960.6
4499.5 kPa | 960.5
4528.1 kPa | 960.6
4557.2 kPa | 960.6
4592.3 kPa | 960.7
4621.6 kPa | 960.6
4656.7 kPa | 960.6
4686.5 kPa | 960.7
4715.9 kPa | 960.6
4751.9 kPa | 960.8
4781.7 kPa | 960.8
4812.3 kPa | 960.7
4843.3 kPa | 960.8
4880.7 kPa | 960.9
4911.1 kPa | 960.8
4942.3 kPa | 961
4973.8 kPa | 960.9
5010.3 kPa | 960.9
5041.6 kPa | 960.9
5073.3 kPa | 961
5110.1 kPa | 961
5141.5 kPa | 960.9
5173.8 kPa | 961
5212.2 kPa | 961.1
5245.4 kPa | 961.1
5277.4 kPa | 961.2
5309.8 kPa | 961.2
5348.9 kPa | 961.2
5381.6 kPa | 961.3
5415.2 kPa | 961.3
5454.8 kPa | 961.2
5488.1 kPa | 961.3
5521.5 kPa | 961.3
5555.1 kPa | 961.3
5594.9 kPa | 961.4
5627.9 kPa | 961.3
5662.1 kPa | 961.3
